Assay results as given in ChEMBL document CHEMBL1201862, “PubChem BioAssay data set” (2004).
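Each compound was tested at five concentrations against cells in 96-well plates for 48 hours. At the GI50, growth is halved.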 Calls of active or inactive are those of the source. Rule as the data show it: active = GI50 up to about 1.1 µM and inactive = higher.

Key:
Assay in all cases: NCI tumour cell line growth inhibition, 48 h
[1] = test system: 786-0
[2] = test system: A498
[3] = test system: A549
[4] = test system: ACHN
[5] = test system: BT-549
[6] = test system: CAKI-1
[7] = test system: CCRF-CEM
[8] = test system: COLO 205
[9] = test system: DU-145
[10] = test system: EKVX
[11] = test system: HCC 2998
[12] = test system: HCT-116
[13] = test system: HCT-15
[14] = test system: HL-60
[15] = test system: HOP-62
[16] = test system: HOP-92
[17] = test system: HT-29
[18] = test system: Hs-578T
[19] = test system: IGROV-1
[20] = test system: K562
[21] = test system: KM12
[22] = test system: LOX IMVI
[23] = test system: M14
[24] = test system: MCF7
[25] = test system: MDA-MB-231
[26] = test system: MDA-MB-435
[27] = test system: MDA-N
[28] = test system: MOLT-4
[29] = test system: Malme-3M
[30] = test system: NCI-H226
[31] = test system: NCI-H23
[32] = test system: NCI-H460
[33] = test system: NCI-H522
[34] = test system: NCI/ADR-RES
[35] = test system: OVCAR-3
[36] = test system: OVCAR-4
[37] = test system: OVCAR-5
[38] = test system: OVCAR-8
[39] = test system: PC-3
[40] = test system: RPMI-8226
[41] = test system: RXF 393
[42] = test system: SF-268
[43] = test system: SF-295
[44] = test system: SF-539
[45] = test system: SK-MEL-28
[46] = test system: SK-MEL-2
[47] = test system: SK-MEL-5
[48] = test system: SK-OV-3
[49] = test system: SN12C
[50] = test system: SNB-19
[51] = test system: SR
[52] = test system: SW-620
[53] = test system: TK-10
[54] = test system: U-251
[55] = test system: UACC-257
[56] = test system: UACC-62
[57] = test system: UO-31
[58] = test system: SNB-75
[59] = test system: T47D

SMILES: COC1/C=C/C(C)C(C(C)C(OC)C(C)CCC(=O)C(C)C(C/C=C/N(C)C=O)OC)OC(=O)C=CC2OC2(C)CC(OC)C(OC)C2=CC(=O)O[C@@H](C(C)C(OC)CC(OC)/C=C/C(C)C(O)C1)[C@H]2O (stereo partly specified)
- GI50 [1]: 0.00451 µM (active)
- GI50 [2]: 0.00785 µM (active)
- GI50 [3]: 0.00349 µM (active)
- GI50 [4]: 0.00313 µM (active)
- GI50 [5]: 0.0214 µM (active)
- GI50 [6]: 0.00267 µM (active)
- GI50 [7]: 0.00935 µM (active)
- GI50 [8]: 0.0016 µM (active)
- GI50 [9]: 0.00938 µM (active)
- GI50 [10]: 0.00562 µM (active)
- GI50 [11]: 0.00569 µM (active)
- GI50 [12]: 0.000528 µM (active)
- GI50 [13]: 0.00631 µM
- GI50 [14]: 0.0109 µM (active)
- GI50 [15]: 0.00497 µM (active)
- GI50 [16]: 0.0056 µM (active)
- GI50 [17]: 0.00364 µM (active)
- GI50 [18]: 0.00448 µM (active)
- GI50 [19]: 0.00106 µM (active)
- GI50 [20]: 0.00277 µM (active)
- GI50 [21]: 0.00708 µM (active)
- GI50 [22]: 0.002 µM (active)
- GI50 [23]: 0.00333 µM (active)
- GI50 [24]: 0.00627 µM (active)
- GI50 [25]: 0.0032 µM (active)
- GI50 [26]: 0.0137 µM (active)
- GI50 [27]: 0.00471 µM (active)
- GI50 [28]: 0.00527 µM (active)
- GI50 [29]: 0.00673 µM (active)
- GI50 [30]: 0.00615 µM (active)
- GI50 [31]: 0.0239 µM (active)
- GI50 [32]: 0.00607 µM (active)
- GI50 [33]: 0.00369 µM (active)
- GI50 [34]: 0.0254 µM (active)
- GI50 [35]: 0.0108 µM (active)
- GI50 [36]: 0.0208 µM (active)
- GI50 [37]: 0.0105 µM (active)
- GI50 [38]: 0.00853 µM (active)
- GI50 [39]: 0.00609 µM (active)
- GI50 [40]: 0.00841 µM (active)
- GI50 [41]: 0.0139 µM (active)
- GI50 [42]: 0.00451 µM (active)
- GI50 [43]: 0.00775 µM (active)
- GI50 [44]: 0.0037 µM (active)
- GI50 [45]: 0.00869 µM (active)
- GI50 [46]: 0.0175 µM (active)
- GI50 [47]: 0.0128 µM (active)
- GI50 [48]: 0.0205 µM (active)
- GI50 [49]: 0.00593 µM (active)
- GI50 [50]: 0.0121 µM (active)
- GI50 [51]: 0.012 µM (active)
- GI50 [52]: 0.00379 µM (active)
- GI50 [53]: 0.0119 µM (active)
- GI50 [54]: 0.0146 µM (active)
- GI50 [55]: 0.0105 µM (active)
- GI50 [56]: 0.0201 µM (active)
- GI50 [57]: 0.00308 µM (active)

SMILES: COc1cc(C)c2c(=O)c3ccccc3n(C)c2c1
- GI50 [1]: 10.6 µM (inactive)
- GI50 [2]: 26.5 µM (inactive)
- GI50 [3]: 38.5 µM (inactive)
- GI50 [4]: 24.3 µM (inactive)
- GI50 [5]: 20.8 µM (inactive)
- GI50 [6]: 31.3 µM (inactive)
- GI50 [7]: 21.9 µM (inactive)
- GI50 [8]: 26.9 µM (inactive)
- GI50 [9]: 33.2 µM (inactive)
- GI50 [10]: 35 µM (inactive)
- GI50 [11]: 45 µM (inactive)
- GI50 [12]: 18.5 µM (inactive)
- GI50 [13]: 22.3 µM
- GI50 [14]: 32.7 µM (inactive)
- GI50 [15]: > 10 µM (inactive)
- GI50 [16]: 7.43 µM (inactive)
- GI50 [17]: 11.8 µM (inactive)
- GI50 [18]: 40.4 µM (inactive)
- GI50 [19]: 26.9 µM (inactive)
- GI50 [20]: 17.1 µM (inactive)
- GI50 [21]: 23.9 µM (inactive)
- GI50 [22]: 17.4 µM (inactive)
- GI50 [23]: 27.2 µM (inactive)
- GI50 [24]: 28.2 µM (inactive)
- GI50 [25]: 25.6 µM (inactive)
- GI50 [26]: 40.8 µM (inactive)
- GI50 [27]: 55.6 µM (inactive)
- GI50 [28]: 29.2 µM (inactive)
- GI50 [29]: 27.1 µM (inactive)
- GI50 [30]: 26.7 µM (inactive)
- GI50 [31]: 24.3 µM (inactive)
- GI50 [32]: 33.3 µM (inactive)
- GI50 [33]: 2.54 µM (inactive)
- GI50 [34]: 30.5 µM (inactive)
- GI50 [35]: 21.6 µM (inactive)
- GI50 [36]: 19.7 µM (inactive)
- GI50 [37]: 16.9 µM (inactive)
- GI50 [38]: 22.6 µM (inactive)
- GI50 [39]: 28.8 µM (inactive)
- GI50 [40]: > 10 µM (inactive)
- GI50 [41]: 14.2 µM (inactive)
- GI50 [42]: 30.5 µM (inactive)
- GI50 [43]: 15.5 µM (inactive)
- GI50 [44]: 15.6 µM (inactive)
- GI50 [45]: 32 µM (inactive)
- GI50 [46]: 36.4 µM (inactive)
- GI50 [47]: > 10 µM (inactive)
- GI50 [48]: 43.1 µM (inactive)
- GI50 [49]: 20.7 µM (inactive)
- GI50 [50]: 34.8 µM (inactive)
- GI50 [58]: 26.4 µM (inactive)
- GI50 [51]: 15.6 µM (inactive)
- GI50 [52]: 45.3 µM (inactive)
- GI50 [53]: 40.9 µM (inactive)
- GI50 [54]: 20 µM (inactive)
- GI50 [55]: 30.3 µM (inactive)
- GI50 [56]: 20.3 µM (inactive)

SMILES: Cc1c2c(n(CCc3ccccc3)c1C)N(C)N=C(C#N)S2(=O)=O
- GI50 [1]: > 100 µM (inactive)
- GI50 [2]: > 10 µM (inactive)
- GI50 [3]: > 100 µM (inactive)
- GI50 [4]: > 100 µM (inactive)
- GI50 [5]: > 100 µM (inactive)
- GI50 [6]: > 100 µM (inactive)
- GI50 [9]: > 100 µM (inactive)
- GI50 [10]: > 100 µM (inactive)
- GI50 [11]: > 100 µM (inactive)
- GI50 [12]: > 100 µM (inactive)
- GI50 [13]: > 100 µM
- GI50 [15]: > 100 µM (inactive)
- GI50 [17]: > 100 µM (inactive)
- GI50 [19]: > 100 µM (inactive)
- GI50 [20]: > 10 µM (inactive)
- GI50 [21]: > 100 µM (inactive)
- GI50 [23]: > 100 µM (inactive)
- GI50 [24]: > 100 µM (inactive)
- GI50 [25]: > 100 µM (inactive)
- GI50 [26]: > 100 µM (inactive)
- GI50 [27]: > 100 µM (inactive)
- GI50 [28]: > 100 µM (inactive)
- GI50 [30]: > 100 µM (inactive)
- GI50 [31]: > 100 µM (inactive)
- GI50 [32]: > 100 µM (inactive)
- GI50 [33]: > 100 µM (inactive)
- GI50 [34]: > 100 µM (inactive)
- GI50 [35]: > 100 µM (inactive)
- GI50 [36]: > 100 µM (inactive)
- GI50 [37]: > 100 µM (inactive)
- GI50 [38]: > 100 µM (inactive)
- GI50 [39]: > 100 µM (inactive)
- GI50 [40]: > 100 µM (inactive)
- GI50 [41]: > 100 µM (inactive)
- GI50 [42]: > 100 µM (inactive)
- GI50 [43]: > 100 µM (inactive)
- GI50 [44]: 7.69 µM (inactive)
- GI50 [45]: > 100 µM (inactive)
- GI50 [46]: > 100 µM (inactive)
- GI50 [47]: > 100 µM (inactive)
- GI50 [48]: > 100 µM (inactive)
- GI50 [49]: > 100 µM (inactive)
- GI50 [50]: > 100 µM (inactive)
- GI50 [58]: > 100 µM (inactive)
- GI50 [51]: > 100 µM (inactive)
- GI50 [52]: > 100 µM (inactive)
- GI50 [59]: > 100 µM (inactive)
- GI50 [53]: > 100 µM (inactive)
- GI50 [54]: > 100 µM (inactive)
- GI50 [55]: > 100 µM (inactive)
- GI50 [56]: > 100 µM (inactive)
- GI50 [57]: > 100 µM (inactive)
